Reference: publication PMC5049494, “Nitrotriazole-based acetamides and propanamides with broad spectrum antitrypanosomal activity” (European Journal of Medicinal Chemistry, 2016)
Where two headings read alike, the source gives them in different places.

How the values were obtained:
[1] = tested on: L6 cells (rat skeletal myoblasts); experiment: Cytotoxicity in the host L6 cells; type: cell-based; conditions: for fold less toxic towards L6 cells relative to unsubstituted compounds 10 and 10a: 9 vs 10, 9a vs 10a
Description: (§1) Compounds in Table 1 were screened for anti-parasitic activity against three trypanosomatids: T. cruzi, T. b. rhodesiense and Leishmania donovani and compared with previously made analogs shown in orange and designated with a. […] In addition, compounds were tested for toxicity in L6 rat skeletal myoblasts, the host cells for T. cruzi amastigotes, in order to calculate a selectivity index for each parasite [SI = IC50L6/IC50parasite] (Table 1). The TDR (Special Programme for Research and Training in Tropical Diseases, World Health Organization) criteria were adopted to interpret antiparasitic activity and selectivity.
(§2) In vitro activity against T. cruzi, T. b. rhodesiense, L. donovani and cytotoxicity assessment using L6 cells (rat skeletal myoblasts) was determined using a 96-well plate format as previously described. Data were analyzed with the graphic program Softmax Pro (Molecular Devices, Sunnyvale, CA, USA), which calculated IC50 values by linear regression from the sigmoidal dose inhibition curves.

[2] = Cytotoxicity in the host L6 cells; type: cell-based, rat; conditions: rat, L6 cells (rat skeletal myoblasts); cytotoxicity in host L6 cells; read-out: Cyt. L6 IC50
Description: as §1, §2

[3] = tested on: T. cruzi, strain Tulahuen C4 amastigotes; experiment: In vitro activity against T. cruzi; type: cell-based; conditions: for SI (T. c.): IC50 in L6 cells/IC50 in T. cruzi; for IC50: Trypanosoma cruzi, T. cruzi Tulahuen C4 amastigotes, means of 2 to 3 measurements, SD < 5%, read-out: T. c. IC50; for Bnz/comp: fold antichagasic potency relative to Bnz (T. cruzi IC50 ratio)
Description: (§3) The concentration of compound that inhibits parasite growth by 50% (IC50) was calculated from dose response curves for each parasite (Table 1). In addition, compounds were tested for toxicity in L6 rat skeletal myoblasts, the host cells for T. cruzi amastigotes, in order to calculate a selectivity index for each parasite [SI = IC50L6/IC50parasite]
(§4) In vitro activity against T. cruzi, T. b. rhodesiense, L. donovani and cytotoxicity assessment using L6 cells (rat skeletal myoblasts) was determined using a 96-well plate format as previously described [37]. Data were analyzed with the graphic program Softmax Pro (Molecular Devices, Sunnyvale, CA, USA), which calculated IC50 values by linear regression from the sigmoidal dose inhibition curves.

[4] = tested on: L. donovani axenic, strain MHOM-ET-67/L82 amastigotes; experiment: In vitro activity against L. donovani; type: cell-based; conditions: for IC50: Leishmania donovani, L. donovani axenic amastigotes MHOM-ET-67/L82, means of 2 to 3 measurements, SD < 5%, read-out: L.d. IC50; for SI (L.d.): IC50 in L6 cells/IC50 in L. donovani; for antileishmanial activity class (TDR criteria): L. donovani
Description: as §3, §4

[5] = tested on: T.b. rhodesiense, strain STIB 900 trypomastigotes; experiment: In vitro activity against T. b. rhodesiense; type: cell-based; conditions: for anti-HAT activity class (TDR criteria): T. b. rhodesiense; for IC50: Trypanosoma brucei, T.b. rhodesiense STIB 900 trypomastigotes, means of 2 to 3 measurements, SD < 5%, read-out: T.b.r. IC50; for SI (T.b.r.): IC50 in L6 cells/IC50 in T.b. rhodesiense; for fold more potent against T. b. rhodesiense than the corresponding acetamide: propanamide vs acetamide analog
Description: as §1, §2

[6] = tested on: bloodstream form T.b. brucei recombinant parasites expressing wild type (-tet) or elevated (+tet) levels of TbNTR; experiment: microbe, parasite or virus in culture; type: cell-based; conditions: Trypanosoma brucei
Description: The BSF of T. brucei parasites were seeded at 1 × 10^3 mL^−1 in 200 μL of growth medium containing different concentrations of nitroheterocycle. Where appropriate, induction of the TbNTR was carried out by adding tetracycline (1 μg/mL). After incubation for 3 days at 37 °C, 20 μL of Alamar blue was added to each well and the plates incubated for a further 16 h. The cell density of each culture was determined as described before [20] and the IC50 established.

[7] = tested on: transgenic T. cruzi parasites expressing firefly luciferase; type: in vivo, Balb/c mice; conditions: for parasite load after 10 days of treatment: acute murine model, p < 0.0001; for parasitic level after 5-day treatment: compared to untreated control
Description: A fast luminescence assay was used in an acute infected murine model, in which transgenic T. cruzi parasites expressing firefly luciferase were injected in 5 week-old Balb/c mice. Mice were injected with D-luciferin before imaging. Groups of 5 mice/group were treated i.p. for 10 consecutive days with each compound, at 13 or 15 mg/kg/day. […] The mean ratio of parasite levels was calculated after 5 and 10 days of treatment.
For in vivo studies, a Brazilian strain trypomastigotes from transgenic T. cruzi parasites expressing firefly luciferase were used as described before. Briefly, parasites (10^5 trypomastigotes) were injected in 5 week-old Balb/c mice (Taconic) and three days later mice were anesthesized by inhalation of isofluorane, followed by an injection with 150 mg/kg of D-luciferin potassium-salt in PBS. Mice were imaged 5–10 min after injection of luciferin with an IVIS 100 (Xenogen, Alameda, CA) and the data acquisition and analysis were performed with the software LivingImage (Xenogen) as described before. Treatment with test compounds started 4 days post infection at 13 or 15 mg/kg/day × 10 days, given i.p. The vehicle control was 2% methylcellulose +0.5% Tween 80 and groups of 5 mice/group were used. Mice were imaged after 5 and 10 days of treatment. The ratio of parasite levels was calculated for each animal dividing the luciferase signal after treatment by the luciferase signal on the first imaging (before treatment). Mean values of all animals in each group ± SD were used for plotting.

[8] = tested on: bloodstream form T.b. brucei wild type; experiment: T. brucei antiproliferating assay, wild type; type: cell-based; conditions: means from 4 experiments ± SD
Description: The BSF of T. brucei parasites were seeded at 1 × 10^3 mL^−1 in 200 μL of growth medium containing different concentrations of nitroheterocycle. Where appropriate, induction of the TbNTR was carried out by adding tetracycline (1 μg/mL). After incubation for 3 days at 37 °C, 20 μL of Alamar blue was added to each well and the plates incubated for a further 16 h. The cell density of each culture was determined as described before and the IC50 established.

[9] = tested on: purified his-tagged recombinant TbNTR; experiment: Enzymatic activity with type I TbNTR; type: biochemical, T. brucei; conditions: substrate 100 μM, NADH 100 μM
Description: Enzyme specific activity was measured as oxidized NADH (nmol) per min per mg of protein. […] As we have reported before with other classes of 3-nitrotriazole-based antitrypanosomal compounds, no correlation between anti-HAT activity and TbNTR specific activity was observed, [13], [15], [16], [17], [18].
Recombinant TbNTR was prepared and assayed as previously described, [39]. The specific activity of purified his-tagged TbNTR was assessed spectrophotometrically at 340 nm using various nitrotriazole substrates (100 μM) and NADH (100 μM) and expressed as nmol NADH oxidized min^−1 mg^−1 of enzyme.

[10] = tested on: L6 cells (rat skeletal myoblasts); parameters: method as in PMID 26344593, PMID 25580906; conditions: previously evaluated compounds (orange, designated a); read-out: Cyt. L6 IC50; cited from earlier work
[11] = tested on: T.b. rhodesiense, strain STIB 900 trypomastigotes; parameters: method as in PMID 26344593, PMID 25580906; conditions: cited from earlier work
[12] = read-out: IC50 value T.b. brucei TbNTR (+tet)
[13] = read-out: IC50 value T.b. brucei TbNTR (-tet)
[14] = Trypanosoma brucei, read-out: IC50 value T.b. brucei Wild type, bloodstream form
[15] = propanamide vs acetamide analog

SMILES: CN(C(=O)Cn1cnc([N+](=O)[O-])n1)c1ccc(C(F)(F)F)cc1 [Compound 2, N-methyl-2-(3-nitro-1H-1,2,4-triazol-1-yl)-N-(4-(trifluoromethyl)phenyl)acetamide]
- fold decrease in toxicity against L6 cells compared to 2a ([1]; compared with 2a): 2 fold
- IC50 [2]: 254000 nM
- SI (T. c.) [3]: ~165
- IC50 [3]: 1540 nM
- fold decrease in antichagasic activity compared to 2a ([3]; compared with 2a): 1.6 fold
- fold more potent towards T. cruzi amastigotes than 2-nitroimidazole counterpart 3 ([3]; compared with 3): 32 fold
- Bnz/comp [3]: 1.4
- melting point: 133 to 134 °C
- IC50 [4]: 47700 nM
- anti-HAT activity class (TDR criteria) [5]: inactive
- IC50 [5]: 37400 nM

SMILES: O=C(CCn1cnc([N+](=O)[O-])n1)Nc1ccc(Oc2ccc(Cl)cc2)cc1 [Compound 6, N-(4-(4-chlorophenoxy)phenyl)-3-(3-nitro-1H-1,2,4-triazol-1-yl)propanamide]
- IC50 [6, 12]: 340 nM
- IC50 [6, 13]: 620 ± 30 nM
- IC50 [2]: 17300 nM
- SI (T. c.) [3]: 3343
- IC50 [3]: 5 nM
- Bnz/comp [3]: 441
- toxicity symptoms in treated mice ([7]; 13 mg/kg/day i.p. x 10 days): did not look very healthy, although no deaths occurred
- parasite load after 10 days of treatment ([7]; 13 mg/kg/day i.p. x 10 days): undetectable levels
- parasitic level after 5-day treatment ([7]; 13 mg/kg/day i.p.): Statistically significant reduction in parasitic level
- IC50 [4]: 1150 nM
- IC50 [8, 14]: ~650 nM
- IC50 ([8]; read-out: IC50 value T.b. brucei Wild type, bloodstream form): 640 ± 20 nM
- TbNTR specific enzyme activity, fold greater than benznidazole [9]: ≤ 4 fold
- SI (T.b.r.) [5]: 418
- IC50 [5]: 41 nM
- fold more potent against T. b. rhodesiense than the corresponding acetamide [5]: 32 fold

SMILES: N#Cc1ccc(-c2ccc(NC(=O)CCn3cnc([N+](=O)[O-])n3)cc2)cc1 [Compound 9, N-(4′-cyano-[1,1′-biphenyl]-4-yl)-3-(3-nitro-1H-1,2,4-triazol-1-yl)propanamide]
- IC50 [6, 12]: 120 ± 10 nM
- IC50 [6, 13]: 550 ± 40 nM
- fold less toxic towards L6 cells relative to unsubstituted compounds 10 and 10a [1]: > 6 fold
- IC50 [2]: 230000 nM
- SI (T. c.) [3]: 2453
- IC50 [3]: 94 nM
- Bnz/comp [3]: 23
- fold more potent against T. cruzi than the acetamide analog [3, 15]: about 1.5 fold
- toxicity symptoms in treated mice ([7]; 15 mg/kg/day i.p. x 10 days): No toxicity symptoms were observed
- parasite load after 10 days of treatment ([7]; 15 mg/kg/day i.p. x 10 days): undetectable levels
- parasitic level after 5-day treatment ([7]; 15 mg/kg/day i.p.): Statistically significant reduction in parasitic level
- SI (L.d.) [4]: 73
- antileishmanial activity class (TDR criteria) [4]: moderately active (‘moderate activity’ (IC50 between 1.0 and 6.0 μM))
- IC50 [4]: 3170 nM
- IC50 [8, 14]: 120 ± 10 nM
- SI (T.b.r.) [5]: 2527
- IC50 [5]: 91 nM
- fold more potent against T. b. rhodesiense than the corresponding acetamide [5]: 3.7 fold

SMILES: N#Cc1ccc(-c2ccc(NC(=O)Cn3cnc([N+](=O)[O-])n3)cc2)cc1 [Compound 9a]
- IC50 [10]: 165000 nM
- fold less toxic towards L6 cells relative to unsubstituted compounds 10 and 10a [1]: > 3.5 fold
- anti-HAT activity class (TDR criteria) ([11]; T. b. rhodesiense, previously evaluated acetamides): active
- IC50 ([11]; previously evaluated compounds (orange, designated a), read-out: T.b.r. IC50): 336 nM

SMILES: O=C(CCn1cnc([N+](=O)[O-])n1)Nc1cccc(OCc2ccccc2)c1 [Compound 11, N-(3-(benzyloxy)phenyl)-3-(3-nitro-1H-1,2,4-triazol-1-yl)propanamide]
- IC50 [6, 12]: 360 ± 20 nM
- IC50 [6, 13]: 3700 ± 580 nM
- IC50 [2]: 40200 nM
- SI (T. c.) [3]: 868
- IC50 [3]: 46 nM
- Bnz/comp [3]: 48
- melting point: 119 to 120 °C
- SI (L.d.) [4]: 35
- antileishmanial activity class (TDR criteria) [4]: moderate activity
- IC50 [4]: 1140 nM
- fold more potent against L. donovani than the acetamide analog [4, 15]: ca. 3 fold
- IC50 [8, 14]: 4250 ± 160 nM
- TbNTR specific enzyme activity, fold greater than benznidazole [9]: ≤ 4 fold
- SI (T.b.r.) [5]: 182
- IC50 [5]: 221 nM
- fold more potent against T. b. rhodesiense than the corresponding acetamide [5]: 22 fold

SMILES: O=C(Cn1cnc([N+](=O)[O-])n1)Nc1cc(-c2ccc(F)cc2)on1 [Compound 13, N-(5-(4-fluorophenyl)isoxazol-3-yl)-2-(3-nitro-1H-1,2,4-triazol-1-yl)acetamide]
- IC50 [2]: 201000 nM
- SI (T. c.) [3]: 590
- IC50 [3]: 340 nM
- Bnz/comp [3]: 6.5
- melting point: > 220 °C
- SI (L.d.) [4]: 20.5
- antileishmanial activity class (TDR criteria) [4]: inactive
- IC50 [4]: 9790 nM
- IC50 [8, 14]: 26600 ± 6020 nM
- TbNTR specific enzyme activity, fold greater than benznidazole [9]: ≤ 4 fold
- SI (T.b.r.) [5]: 25.1
- anti-HAT activity class (TDR criteria) [5]: inactive
- IC50 [5]: 8000 nM

SMILES: O=C(CCn1cnc([N+](=O)[O-])n1)Nc1cc(-c2ccc(Cl)cc2)no1 [Compound 14, N-(3-(4-chlorophenyl)isoxazol-5-yl)-3-(3-nitro-1H-1,2,4-triazol-1-yl)propanamide]
- IC50 [6, 12]: 290 ± 20 nM
- IC50 [6, 13]: 910 ± 30 nM
- IC50 [2]: 179000 nM
- IC50 [3]: 251 nM
- Bnz/comp [3]: 9
- antileishmanial activity class (TDR criteria) [4]: moderately active (‘moderate activity’ (IC50 between 1.0 and 6.0 μM))
- IC50 [4]: 2950 nM
- IC50 [8, 14]: 270 ± 50 nM
- substrate of TbNTR / rate of metabolism [9]: equivalent rates
- anti-HAT activity class (TDR criteria) [5]: moderately active (IC50 between 0.5 and 6.0 μM)
- IC50 [5]: 651 nM

SMILES: O=C(Cn1cnc([N+](=O)[O-])n1)Nc1cc(-c2ccc(Cl)cc2)no1 [Compound 15, N-(3-(4-chlorophenyl)isoxazol-5-yl)-2-(3-nitro-1H-1,2,4-triazol-1-yl)acetamide]
- IC50 [6, 12]: 1230 ± 60 nM
- IC50 [6, 13]: 13300 ± 1400 nM
- IC50 [2]: 112000 nM
- IC50 [3]: 1530 nM
- Bnz/comp [3]: 1.4
- antileishmanial activity class (TDR criteria) [4]: inactive
- IC50 [4]: 12500 nM
- IC50 [8, 14]: 8650 ± 490 nM
- substrate of TbNTR / rate of metabolism [9]: equivalent rates
- anti-HAT activity class (TDR criteria) [5]: inactive
- IC50 [5]: 15100 nM
